Measurements reported in patent US20210292765A1, “COMPOSITIONS COMPRISING INTERMEDIATE NON-CODING RNA REGULATORS MODULATING THE EXPRESSION OF ETV6 OR FOXO1 AND USES THEREOF” (University of Exeter, priority 2018, published 2021).
Marks after values point to notes of the source that are not given here.

How the values were obtained:
Assay type in all cases: cell-based
[1] = test system: late passage primary human fibroblast cells; assay: SASP protein levels in culture medium (MesoScale multiplex ELISA); settings: 24 hrs, culture medium from senescent cells
Method: Late passage primary human fibroblast cells at PD=63 were seeded at 6×10^4 cells per well in a 6 well plate, cultured for 10 days and then treated with at 1 μM or 10 μM trametinib (MEK/ERK inhibitor) or SH-6 (AKT inhibitor) for 24 hours. Cell supernatants were then harvested and stored at −80° C. Levels of GMCSF, IFNγ, IL1β, IL2, IL6, IL8, IL10, IL-12p70, and TNFα SASP components were measured in cell supernatants from treated and vehicle-only control cells using the K15007B MesoScale Discovery multiplex ELISA immunoassay (MSD, Rockville, USA) in 4 biological replicates. Proteins were quantified relative to a standard curve using a Sector Imager SI-6000 according to the manufacturer's instructions.

[2] = test system: senescent primary human fibroblasts; assay: Splicing factor transcript expression by qRTPCR (TLDA); settings: 24 hrs, control = 1.00
Method: Late passage primary human fibroblasts at PD=63 were seeded at 6×10^4 cells per well as 3 biological replicates in 6-well plates, allowed to grow for 10 days and then treated with the ERK inhibitor trametinib or the AKT inhibitor SH-6 at 1 μM or 10 μM for 24 hrs. Vehicle (DMSO) only controls were also included under the same growth conditions. The expression levels of 20 splicing factor transcripts previously associated with age, replicative senescence or lifespan in our previous work (Harries et al. 2011; Holly et al. 2013; Lee et al. 2016) were then assessed by qRTPCR. RNA was extracted using TRI Reagent® (Life Technologies, Foster City USA) according to the manufacturer's instructions. Total RNA (100 ng) was reverse transcribed in 20 μl reactions using the Superscript III VILO kit (Life Technologies). Transcript expression was then quantified in duplicate for each biological replicate using TaqMan Low Density Array (TLDA) on QuantStudio 12K Flex (Applied Biosystems, Foster City, USA). Cycling conditions were 1 cycle each of 50° C. for 2 min, 94.5° C. for 10 min and then 40 cycles of 97° C. for 30 s and 57.9° C. for 1 min. The reaction mixes included 50 μl TaqMan Fast Universal PCR Mastermix (Life Technologies), 30 μl dH2O and 20 μl cDNA template. 100 μl reaction mixture was dispensed into the TLDA card chamber and centrifuged twice for 1 min at 1000 rpm. Transcript expression was assessed by the Comparative Ct approach, relative to the IDH3B, GUSB and PP/A endogenous control genes and normalised to their expression in RNA from untreated late passage cells.

[3] = test system: late passage primary human fibroblasts; assay: Cell proliferation index by Ki67 immunofluorescence; settings: for increase in proliferative index: gene knockdown with morpholino oligonucleotides (10 μM)
Method: The proliferative capacity of treated cells was assessed by Ki67 and BrdU staining and by cell counts. Late passage primary human fibroblasts at PD=63 were seeded at 1×10^4 cells per well in 3 biological replicates in 24-well plates, allowed to grow for 10 days and then assayed for cell proliferation by ki67 staining. For assessment of cells in S phase, late passage primary human fibroblasts at PD=63 were seeded at 1×10^4 cells per coverslip as 3 biological replicates in 24-well plates, allowed to grow for 10 days and then were incubated with 5-Bromo-2′-deoxy-uridine (BrdU) for 24 hrs. BrdU incorporation was determined by the 5-Bromo-2′-deoxy-uridine labeling and detection kit I following instructions of the manufacturer (Roche Molecular Biochemicals). BrdU positive cells were visualized and counted by fluorescence microscopy. Cell counts were carried out manually in 3 biological replicates in treated and vehicle-only cultures following trypsinisation and suspension of cells and are presented as mean (+/−SEM). Following treatment, cells were fixed for 10 min with 4% PFA and permeabilized with 0.025% Triton and 10% serum in PBS for 1 hour. Ki-67 staining was carried out by rabbit monoclonal antibody (ab16667, Abcam, UK) at a 1:400 dilution and samples were incubated overnight at 4° C., followed by FITC-conjugated secondary goat anti-rabbit antibody (1:400) for 1 hour, and nuclei were counterstained with DAPI. Coverslips were mounted on slides in DAKO fluorescence mounting medium (S3023; Dako, Santa Clara, USA). The proliferation index was determined by counting the percentage of Ki67 positive cells from at least 400 nuclei from each biological replicate at 400× magnification under a Leica D4000 fluorescence microscope.

[4] = test system: late passage primary human fibroblasts; assay: CDKN2A (p16) and CDKN1A (p21) expression by qRTPCR; settings: gene knockdown with morpholino oligonucleotides (10 μM)
[5] = test system: late passage primary human fibroblasts; assay: Cellular senescence by SA-β-Gal staining; settings: gene knockdown with morpholino oligonucleotides (10 μM)

Q: What does the source list for `CC(=O)Nc1cccc(-n2c(=O)n(C3CC3)c(=O)c3c(Nc4ccc(I)cc4F)n(C)c(=O)c(C)c32)c1` [Trametinib, trametinib]?
A: GM-CSF SASP protein expression ([1]; 1 uM): 24.65*** percentage of the control value; IL1b SASP protein expression ([1]; 1 uM): 156.70** percentage of the control value; IL2 SASP protein expression ([1]; 1 uM): 50.72** percentage of the control value; IL6 SASP protein expression ([1]; 1 uM): 77.75 percentage of the control value; IL8 SASP protein expression ([1]; 1 uM): 44.42** percentage of the control value; IL10 SASP protein expression ([1]; 1 uM): 34.37*** percentage of the control value; IL12p70 SASP protein expression ([1]; 1 uM): 69.64 percentage of the control value; INF-g SASP protein expression ([1]; 1 uM): 95.08 percentage of the control value; TNFa SASP protein expression ([1]; 1 uM): 104.61 percentage of the control value; GM-CSF SASP protein expression ([1]; 10 uM): 9.85*** percentage of the control value; IL1b SASP protein expression ([1]; 10 uM): 50.35** percentage of the control value; IL2 SASP protein expression ([1]; 10 uM): 14.39*** percentage of the control value; IL6 SASP protein expression ([1]; 10 uM): 33.57*** percentage of the control value; IL8 SASP protein expression ([1]; 10 uM): 5.33*** percentage of the control value; IL10 SASP protein expression ([1]; 10 uM): 86.01 percentage of the control value; IL12p70 SASP protein expression ([1]; 10 uM): 77.78 percentage of the control value; INF-g SASP protein expression ([1]; 10 uM): 106.33 percentage of the control value; TNFa SASP protein expression ([1]; 10 uM): 118.65 percentage of the control value; AKAP17A splicing factor mRNA expression ([2]; 1 uM): 2.01***; HNRNPA0 splicing factor mRNA expression ([2]; 1 uM): 2.38***; HNRNPA1 splicing factor mRNA expression ([2]; 1 uM): 1.52*; HNRNPA2B1 splicing factor mRNA expression ([2]; 1 uM): 1.53*; HNRNPD splicing factor mRNA expression ([2]; 1 uM): 1.79*; HNRNPH3 splicing factor mRNA expression ([2]; 1 uM): 1.89***; HNRNPK splicing factor mRNA expression ([2]; 1 uM): 1.68***; HNRNPM splicing factor mRNA expression ([2]; 1 uM): 1.46*; HNRNPUL2 splicing factor mRNA expression ([2]; 1 uM): 1.63***; IMP3 splicing factor mRNA expression ([2]; 1 uM): 1.77***; LSM2 splicing factor mRNA expression ([2]; 1 uM): 0.85; LSM14A splicing factor mRNA expression ([2]; 1 uM): 1.61**; PNISR splicing factor mRNA expression ([2]; 1 uM): 1.63**; SF3B1 splicing factor mRNA expression ([2]; 1 uM): 1.93***; SRSF1 splicing factor mRNA expression ([2]; 1 uM): 1.69*; SRSF2 splicing factor mRNA expression ([2]; 1 uM): 2.07**; SRSF3 splicing factor mRNA expression ([2]; 1 uM): 1.64***; SRSF6 splicing factor mRNA expression ([2]; 1 uM): 2.68***; SRSF7 splicing factor mRNA expression ([2]; 1 uM): 2.38***; TRA2B splicing factor mRNA expression ([2]; 1 uM): 1.66*; AKAP17A splicing factor mRNA expression ([2]; 10 uM): 0.74**; HNRNPA0 splicing factor mRNA expression ([2]; 10 uM): 1.11; HNRNPA1 splicing factor mRNA expression ([2]; 10 uM): 0.49***; HNRNPA2B1 splicing factor mRNA expression ([2]; 10 uM): 0.70***; HNRNPD splicing factor mRNA expression ([2]; 10 uM): 0.75**; HNRNPH3 splicing factor mRNA expression ([2]; 10 uM): 0.95; HNRNPK splicing factor mRNA expression ([2]; 10 uM): 1.02; HNRNPM splicing factor mRNA expression ([2]; 10 uM): 0.69***; HNRNPUL2 splicing factor mRNA expression ([2]; 10 uM): 0.94; IMP3 splicing factor mRNA expression ([2]; 10 uM): 0.97; LSM2 splicing factor mRNA expression ([2]; 10 uM): 0.82; LSM14A splicing factor mRNA expression ([2]; 10 uM): 1.18; PNISR splicing factor mRNA expression ([2]; 10 uM): 1.11; SF3B1 splicing factor mRNA expression ([2]; 10 uM): 0.96; SRSF1 splicing factor mRNA expression ([2]; 10 uM): 0.68**; SRSF2 splicing factor mRNA expression ([2]; 10 uM): 0.86*; SRSF3 splicing factor mRNA expression ([2]; 10 uM): 0.72***; SRSF6 splicing factor mRNA expression ([2]; 10 uM): 0.69***; SRSF7 splicing factor mRNA expression ([2]; 10 uM): 0.57***; TRA2B splicing factor mRNA expression ([2]; 10 uM): 0.73**; increase in proliferative index (Ki67 staining) ([3]; low dose (1 μM)): 31%

Q: Which results are given for “ETV6 morpholino: Antisense morpholino to 5′ untranslated region of ETV6: CATGTCTCACAGCGAGAGAGATCAG (all phosphorodiamidate morpholino (PMO))”?
A: reduction in CDKN2A expression [4]: 24%; reduction in senescent cell load as measured by SA-β-Gal staining [5]: ~18%; increase in proliferative index [3]: 36%

Q: How did the “reduction in CDKN2A expression” value [4] turn out when “FOXO1 morpholino: Antisense morpholino to 5′ untranslated region of FOXO1: TCCCCCAGCCGCAGGAGAGCCAAGA (all phosphorodiamidate morpholino (PMO))” was run?
A: 43%

Q: What about the “reduction in senescent cell load as measured by SA-β-Gal staining” value [5] of the same compound?
A: ~40%

Q: And the “increase in proliferative index” value [3]?
A: 19%
